In article PMC3242598, “Phase I study of BIBF 1120 with docetaxel and prednisone in metastatic chemo-naive hormone-refractory prostate cancer patients” (British Journal of Cancer, 2011):
“Also recorded” adds a separate entry of the source. Like-named read-outs stand apart in the source and are kept apart here.

Columns and labels:
[1] = system: metastatic hormone-refractory prostate cancer (HRPC); assay: Evaluation of response (PSA decline, RECIST); type: in vivo, human
Procedure: All patients who received at least one dose of BIBF 1120 or docetaxel were assessed during the safety analysis. Intensity of AEs was graded according to Common Terminology Criteria for Adverse Events (CTCAE) version 3.0. Objective response was defined as a PSA decline ⩾50% from the baseline value over two consecutive courses and/or tumour response according to RECIST criteria ([Therasse et al, 2000]).

[2] = set-up: method as in Mross et al, 2010; conditions: monotherapy phase I; ref Mross et al, 2010; cited from earlier work
[3] = system: advanced lung cancer patients; set-up: method as in Reck et al, 2011; conditions: phase II, ref Reck et al, 2011, cited from earlier work
[4] = system: VEGFR; set-up: method as in Hilberg et al, 2008; conditions: after a 1-h exposure; ref Hilberg et al, 2008; cited from earlier work
[5] = system: patients with metastatic, chemo-naive, hormone-refractory prostate cancer (HRPC); assay: Dose escalation: dose-limiting toxicities and maximum tolerated dose; type: in vivo
Procedure: On days 2–21 (21-day cycle), patients took an oral dose of BIBF 1120 twice daily. Patients were instructed to swallow BIBF 1120 with water at the same time every day to ensure a dose interval of ∼12 h. On day 2 of treatment cycles (TCs) 1 and 2, patients only took the morning dose of BIBF 1120, omitting the evening dose to allow PK evaluation. All patients were premedicated with oral corticosteroids (dexamethasone 8 mg per os or methylprednisolone 32 mg per os, at 12 h and 1 h before docetaxel infusion) and subsequently took 5 mg prednisone oral BID throughout the trial. On day 1 of each TC, patients received an IV infusion of 75 mg m^−2 docetaxel administered over 1 h.
Based on prior clinical experience, the starting dose of BIBF 1120 in TC 1 was 100 mg BID; doses were escalated in 50 mg increments until the occurrence of a dose-limiting toxicity (DLT). Recognised DLTs included the occurrence of non-haematological related toxicity grade ⩾3 with the exception of alopecia, nail modifications, acute nausea or vomiting and isolated γ-glutamyl transpeptidase elevations. Alternatively, the occurrence of uncomplicated grade 4 neutropenia for >7 days, neutropenia grade ⩾3 associated with fever ⩾38.5 °C, or grade 4 thrombopenia or grade 3 thrombopenia associated with bleeding in […], was defined as a DLT. […]

[6] = Plasma pharmacokinetics of BIBF 1120 (HPLC-MS/MS); type: in vivo, human; conditions: for Cmax / AUC(0-t) / half-life / Tmax: human, plasma, po, 250 mg; for Cmax: read-out: Cmax, gMean (gCV%); for AUC(0-t): read-out: AUC0−24, gMean (gCV%); for half-life: read-out: t1/2, gMean (gCV%) (converted); for Tmax: read-out: tmax, median and range
Procedure: Plasma concentrations of BIBF 1120 and docetaxel were analysed by a validated method using high-performance liquid chromatography coupled with tandem mass spectrometry (HPLC-MS/MS) in the Department of Drug Metabolism and Pharmacokinetics (Boehringer Ingelheim Pharma GmbH & Co KG, Biberach, Germany). The assay comprises sample clean-up by automated solid-phase extraction in a 96-well plate format. Chromatography was achieved on an analytical C18 reversed phase HPLC column with gradient elution. The substance was detected and quantified by HPLC-MS/MS using electrospray ionisation in the positive ion mode. Docetaxel was analysed by HPLC-MS/MS using paclitaxel as an internal standard. The assay comprises sample clean-up by liquid–liquid extraction and chromatography on an analytical C18 reversed phase HPLC column with isocratic elution. […] For docetaxel, the lower limit was 2.5 ng ml^−1 plasma, using a plasma volume of 100 μl. The calculated parameters were plasmatic peak concentrations following the first dose (Cmax), half-life time (t1/2), area under the plasma concentration–time curve (AUCt), apparent clearance after oral administration, and apparent volume of distribution during the terminal phase.

[7] = system: human prostate cancer xenografts; set-up: method as in Hilberg et al, 2008; conditions: human prostate cancer xenografts in athymic mice; ref Hilberg et al, 2008; cited from earlier work
[8] = oral 250 mg BID, day 2 of treatment cycle 2, with docetaxel
[9] = male, oral 250 mg BID, day 2 of treatment cycle 1
[10] = male, oral 250 mg BID, treatment cycle 2

COC(=O)c1ccc2c(c1)NC(=O)/C2=C(\Nc1ccc(N(C)C(=O)CN2CCN(C)CC2)cc1)c1ccccc1 [BIBF 1120]
Estimated progression-free survival rate at 24 weeks ([1]; 250 mg BID + docetaxel/prednisone): 56% | Patients with ⩾50% reduction in PSA levels from baseline (PSA response) ([1]; 19 assessable patients, BIBF 1120 + docetaxel/prednisone): 68.4% | Patients with disease response (PSA and/or RECIST) ([1]; 19 evaluable patients, BIBF 1120 100–250 mg BID + docetaxel/prednisone): 73.7% | Patients with complete biological response with normalisation of PSA ([1]; BIBF 1120 + docetaxel/prednisone): 33.3% | t1/2 [2]: ~15 h | Frequency of CTCAE grade 3/4 liver enzyme elevations ([3]; 250 mg BID monotherapy): ~20% | Frequency of CTCAE grade 3/4 liver enzyme elevations ([3]; 150-mg BID monotherapy): none | Duration of block of VEGFR activation [4]: > 32 h | Maximum tolerated dose (MTD) ([5]; continuous daily oral BIBF 1120 + docetaxel 75 mg m^−2 every 3 weeks + prednisone 5 mg BID): 250 mg BID | DLTs at dose levels <250 mg BID ([5]; in vivo): no patients experienced DLTs | Exposure with increasing doses ([6]; 100–250 mg BID): dose-dependent increase in exposure | Time to reach steady state ([6]; BIBF 1120 BID dosing): 7 days | PK interaction between BIBF 1120 and docetaxel/prednisone ([6]; combination therapy): no interactions; also recorded: no hint for PK interaction; also recorded: no indication of PK interaction | Cmax [6, 8]: 45.9 ng/mL | AUC(0-t) [6, 9]: 454 ng·h/mL | half-life [6, 9]: 7.03 h | Cmax ([6]; male, oral 250 mg BID, day 2 of treatment cycle 1, with docetaxel): 65 ng/mL | half-life ([6]; male, oral 250 mg BID, day 2 of treatment cycle 2): 15.4 h | Tmax ([6]; male, oral 250 mg BID, treatment cycle 1): 3 h | AUC(0-t) [6, 10]: 410 ng·h/mL | Tmax [6, 10]: 2.08 h | Cmax, gMean (gCV%) [6, 8]: 45.8 (98.5) ng ml^−1 | Antitumour activity in vivo [7]: potent antitumour activity
